# How the values were obtained:
# JAK1 = JAK1 (Homo sapiens, UniProt P23458); assay: JAK/TYK2 assay (Kinase Glo luminescence): Jak1 kinase assay; format: biochemical; details: 7.5 nM enzyme, 2 uM ATP, 30 uM IRS-1, 1 hr
# Description: (§1) Example A: JAK/TYK2 Assay 10 mM test compound stock or 1 mM control compound stock (tofocitinib, ruxolitinib or staurosporine) in DMSO was diluted to 0.4 mM in DMSO. A 3-fold series dilution was then performed in DMSO to generate 10 different compound concentrations. The assay was carried out in 384-well white plate. 0.5 μL of 40× compound DMSO solution at different concentrations was mixed with 10 uL 2× enzyme prepared in reaction buffer (20 mM HEPES, 10 mM MgCl2, 0.01% Tween, 1 mM DTT, pH 7.5). 10 uL 2× substrate mixture prepared in reaction buffer was then added to start the reaction. A short spin was done to settle down all solutions to the bottom of the plate. Final concentrations of test compound in the reaction mixture were 10000, 3333, 1111, 370, 123, 41.2, 13.7, 4.57, 1.52 and 0.51 nM, Concentrations of control compound were ten times less. Enzymatic reaction was conducted at 25° C. for 1-2 hours. 10 uL of Kinase Glo Reagents was added to stop the reaction and generate the luminescent signal which was measured using Envision. Luminescence signal was inversely related to kinase activity. […] The mixture without any compound was the positive control. [table]
# JAK3 = biological target: T1, JAK3 (Homo sapiens, UniProt P52333); assay: JAK/TYK2 assay (Kinase Glo luminescence): Jak3 kinase assay; format: biochemical; details: 1.5 nM enzyme, 2 uM ATP, 4 uM pEY, 1 hr; read-out: Jak3 kinase assay: IC50 Geomean
# T1 sequence (P52333 1-1124): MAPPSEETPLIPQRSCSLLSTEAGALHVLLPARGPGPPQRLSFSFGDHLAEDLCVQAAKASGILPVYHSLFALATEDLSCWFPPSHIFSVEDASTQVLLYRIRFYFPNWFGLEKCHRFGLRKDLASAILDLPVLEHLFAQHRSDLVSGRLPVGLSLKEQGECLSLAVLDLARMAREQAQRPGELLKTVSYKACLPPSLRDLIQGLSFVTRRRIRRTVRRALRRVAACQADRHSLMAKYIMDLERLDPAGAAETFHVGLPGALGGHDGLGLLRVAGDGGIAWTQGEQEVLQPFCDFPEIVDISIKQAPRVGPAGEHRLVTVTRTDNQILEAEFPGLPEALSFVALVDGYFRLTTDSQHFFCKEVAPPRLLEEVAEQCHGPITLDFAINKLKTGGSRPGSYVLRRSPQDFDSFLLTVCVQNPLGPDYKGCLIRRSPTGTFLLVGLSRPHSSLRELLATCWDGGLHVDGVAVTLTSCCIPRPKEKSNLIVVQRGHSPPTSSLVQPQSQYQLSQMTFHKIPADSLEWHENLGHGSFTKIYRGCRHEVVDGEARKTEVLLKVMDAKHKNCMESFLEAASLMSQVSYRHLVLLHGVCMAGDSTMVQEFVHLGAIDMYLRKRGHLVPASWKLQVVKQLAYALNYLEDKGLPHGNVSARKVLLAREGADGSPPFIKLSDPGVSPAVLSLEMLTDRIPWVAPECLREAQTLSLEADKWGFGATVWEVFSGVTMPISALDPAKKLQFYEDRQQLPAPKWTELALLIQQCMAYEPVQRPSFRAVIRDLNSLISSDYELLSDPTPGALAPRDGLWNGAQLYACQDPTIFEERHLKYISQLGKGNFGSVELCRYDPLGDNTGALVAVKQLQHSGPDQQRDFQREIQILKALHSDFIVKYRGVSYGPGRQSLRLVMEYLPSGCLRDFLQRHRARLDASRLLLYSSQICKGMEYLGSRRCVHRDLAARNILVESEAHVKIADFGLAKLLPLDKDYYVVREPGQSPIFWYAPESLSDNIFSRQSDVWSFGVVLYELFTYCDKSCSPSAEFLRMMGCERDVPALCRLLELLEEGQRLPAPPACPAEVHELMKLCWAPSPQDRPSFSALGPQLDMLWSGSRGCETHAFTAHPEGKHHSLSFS
# Description: as §1
# JAK2 = JAK2 (Homo sapiens, UniProt O60674); assay: JAK/TYK2 assay (Kinase Glo luminescence): Jak2 kinase assay; format: biochemical; details: 0.8 nM enzyme, 2 uM ATP, 4 uM pEY, 1 hr; read-out: Jak2 kinase assay: IC50 Geomean
# Description: as §1
# TYK2 = TYK2 (Homo sapiens, UniProt P29597); assay: JAK/TYK2 assay (Kinase Glo luminescence): Tyk2 kinase assay; format: biochemical; details: 9 nM enzyme, 2 uM ATP, 30 uM IRS-1, 1 hr; read-out: Tyk2 kinase assay: IC50 Geomean
# Description: as §1
# [1] = system: JAK2: GM-CSF stimulated STAT5 phosphorylation; assay: Co-stimulation assay in lysed whole blood; JAK2: GM-CSF stimulated STAT5 phosphorylation; format: cell-based, human; details: Homo sapiens, read-out: GMCSF/J2/pS5: GeoMean (nM)
# Description: Example C: Co-Stimulation Assay in Lysed Whole Blood; JAK2: GM-CSF Stimulated STAT5 Phosphorylation and JAK1/TYK2 Stimulated STAT1 Phosphorylation Assay
# Human Blood Lysis using abcam's RBC lysis buffer
# Dilute RBC lysis buffer to 1× in distilled water. Add 2 mL blood to 38 mL of 1×RBC-lysis buffer. Incubate for 15 mins at RT, in dark. Spin at 300 g, 5 mins, to collect the pellet. Re-lyse if necessary. Re-suspend pellet in 5 mL of cRPMI.
# Aliquot 80 μL of lysed human blood in to wells of 96 deep-well plate. Add 10 μl of (10× conc.) of different concentrations of compounds to all wells except controls (unstained and unstimulated) and mix it with the help of 100 uL multichannel Add 10 uL of RPMI media in controls. For dilution of compounds and dilution range please refer Appendix. Incubate on water bath or CO2 incubator for 1 hour at 37° C. Add 10 μl of (10× conc.) of cytokine mix (GM-CSF and IFNa) (final conc. 10 ng/mL of GM-CSF and 100 ng/mL of IFNa) to each well except unstimulated and unstained controls and incubate further for 20 minutes on water bath at 37° C.
# Add 900 μL of prewarmed 1× Fix/Lyse solution (Appendix) and mix it properly using 1000 μl multichannel, incubate further on water bath at 37° C. for 10 minutes (which includes time of addition). Centrifuge at 800×g for 5 minutes at 40° C.; remove 900 uL of supernatant and add 900 μL of 1×PBS. Centrifuge at 800×g for 5 minutes at 40° C., remove 900 μL of supernatant. Wash one more time with 900 μL of PBS (optional) and resuspend pellets in 100 uL of PBS.
# Disrupt the pellet by gentle tapping and resuspend in 1000 μL of BD Phosflow Perm Buffer III and incubate plate on ice for 30 minutes. Centrifuge plate at 800×g for 5 minutes at 40° C. Wash two more times with 1000 μL of BD Pharmingen Stain Buffer.
# Disrupt the pellet by gentle tapping. Resuspend pellets in 100 uL of Stain Buffer and add 5 μL of pSTAT5_AF488 Ab and 5 uL of pSTAT1_PE in all wells except unstained control and mix properly using 200 μl multichannel, incubate overnight at […]. Add 900 μL of wash buffer and centrifuge at 1800 rpm for 3 minutes at […]. Wash one more time with 1000 μL of BD Pharmingen Stain Buffer. Finally resuspend the pellet in 300 uL of BD Pharmingen Stain Buffer. Transfer the cells to 96-well v-bottom plate and acquire the cells in Beckman Coulter CytExpert. Acquiring cells in Flow Cytometer: Keep the threshold value to 250 and cell concentration should not exceed 100-500 cells/4. Acquire at least 5,000-10,000 cells.
# RPMI 1640 Complete Medium: RPMI 1640 media+10% FBS.
# Cytokine dilution: 1) GM-CSF Stock at 100 ug/mL. Prepare an intermediate dilution of 1 ug/mL by adding 2 uL of stock into 198 uL of cRPMI. Further dilute to 100 ng/mL by adding 100 uL of the intermediate stock to 900 uL of cRPMI. 2) IFNa Stock at 200 ug/mL. Dilute IFNa stock 1:200 by adding 5 uL of stock into the 1000 uL of 100 ng/mL GM-CSF working stock as above to give a combined working stock of 1000 ng/mL of IFNa and 100 ng/mL GM-CSF (10×). Keep it on ice until used.
# Lyse/Fix buffer preparation: Dilute 5× Lyse/Fix buffer to 1× using MQ water and keep at 37° C. until used.
# BD Phosflow perm buffer III: Keep on ice/fridge
# Sequence of JAK1 (P23458 whole entry, species assumed): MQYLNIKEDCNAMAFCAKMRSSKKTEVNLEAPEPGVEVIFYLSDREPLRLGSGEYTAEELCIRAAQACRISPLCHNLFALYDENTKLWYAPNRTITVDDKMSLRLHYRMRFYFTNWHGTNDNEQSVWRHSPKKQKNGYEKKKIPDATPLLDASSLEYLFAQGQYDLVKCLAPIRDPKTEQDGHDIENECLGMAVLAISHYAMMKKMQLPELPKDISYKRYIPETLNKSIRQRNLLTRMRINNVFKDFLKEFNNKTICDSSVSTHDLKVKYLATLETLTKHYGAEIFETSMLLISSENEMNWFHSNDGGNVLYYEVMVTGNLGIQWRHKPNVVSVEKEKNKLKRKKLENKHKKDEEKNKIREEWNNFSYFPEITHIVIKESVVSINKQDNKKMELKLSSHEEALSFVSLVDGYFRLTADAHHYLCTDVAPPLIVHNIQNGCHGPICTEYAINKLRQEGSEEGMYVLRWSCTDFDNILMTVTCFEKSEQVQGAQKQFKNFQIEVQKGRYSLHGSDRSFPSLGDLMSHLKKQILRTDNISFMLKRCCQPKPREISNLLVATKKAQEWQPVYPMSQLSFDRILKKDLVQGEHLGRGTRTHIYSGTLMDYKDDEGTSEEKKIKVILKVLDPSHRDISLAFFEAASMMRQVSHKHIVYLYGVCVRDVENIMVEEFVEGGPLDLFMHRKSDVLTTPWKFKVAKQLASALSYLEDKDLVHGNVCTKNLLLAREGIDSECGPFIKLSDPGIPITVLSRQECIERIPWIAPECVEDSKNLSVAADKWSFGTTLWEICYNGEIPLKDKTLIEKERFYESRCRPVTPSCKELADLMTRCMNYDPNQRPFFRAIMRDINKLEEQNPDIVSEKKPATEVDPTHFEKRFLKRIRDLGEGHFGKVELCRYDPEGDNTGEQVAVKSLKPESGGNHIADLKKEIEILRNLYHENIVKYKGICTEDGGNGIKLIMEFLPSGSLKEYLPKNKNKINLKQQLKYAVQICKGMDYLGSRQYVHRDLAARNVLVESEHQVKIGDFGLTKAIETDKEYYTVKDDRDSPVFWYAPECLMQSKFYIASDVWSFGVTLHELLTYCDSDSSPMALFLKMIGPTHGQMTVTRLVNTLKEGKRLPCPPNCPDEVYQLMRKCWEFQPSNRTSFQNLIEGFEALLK
# Sequence of JAK2 (O60674 whole entry, species assumed): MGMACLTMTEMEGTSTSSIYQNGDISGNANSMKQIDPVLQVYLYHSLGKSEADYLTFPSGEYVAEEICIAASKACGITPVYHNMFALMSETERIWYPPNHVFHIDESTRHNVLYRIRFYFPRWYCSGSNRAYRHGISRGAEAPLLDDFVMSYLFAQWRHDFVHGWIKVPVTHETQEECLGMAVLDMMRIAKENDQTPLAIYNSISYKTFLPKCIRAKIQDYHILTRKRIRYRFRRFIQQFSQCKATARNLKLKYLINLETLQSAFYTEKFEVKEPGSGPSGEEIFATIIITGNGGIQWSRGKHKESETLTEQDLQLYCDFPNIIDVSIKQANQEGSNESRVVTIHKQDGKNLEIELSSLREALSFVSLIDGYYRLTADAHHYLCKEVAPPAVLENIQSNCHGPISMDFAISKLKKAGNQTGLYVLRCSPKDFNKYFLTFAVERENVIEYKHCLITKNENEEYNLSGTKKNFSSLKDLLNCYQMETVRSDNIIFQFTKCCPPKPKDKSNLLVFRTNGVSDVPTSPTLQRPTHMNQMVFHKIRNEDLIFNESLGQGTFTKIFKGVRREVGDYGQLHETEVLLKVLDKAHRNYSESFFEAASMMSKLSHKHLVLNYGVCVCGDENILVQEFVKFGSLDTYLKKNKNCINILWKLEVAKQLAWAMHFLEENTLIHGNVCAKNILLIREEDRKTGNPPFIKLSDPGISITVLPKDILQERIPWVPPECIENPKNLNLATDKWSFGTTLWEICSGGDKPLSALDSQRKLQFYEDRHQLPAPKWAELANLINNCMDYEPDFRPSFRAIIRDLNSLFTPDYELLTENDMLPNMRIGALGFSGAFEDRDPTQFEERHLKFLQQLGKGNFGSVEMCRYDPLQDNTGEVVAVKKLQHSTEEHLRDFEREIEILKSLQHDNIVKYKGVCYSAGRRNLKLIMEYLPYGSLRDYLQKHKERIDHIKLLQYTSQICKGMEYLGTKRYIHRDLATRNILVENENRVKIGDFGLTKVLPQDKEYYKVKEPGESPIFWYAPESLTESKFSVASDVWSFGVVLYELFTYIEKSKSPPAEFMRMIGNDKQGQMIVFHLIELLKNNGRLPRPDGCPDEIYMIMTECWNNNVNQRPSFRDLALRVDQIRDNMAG
# Sequence of TYK2 (P29597 whole entry, species assumed): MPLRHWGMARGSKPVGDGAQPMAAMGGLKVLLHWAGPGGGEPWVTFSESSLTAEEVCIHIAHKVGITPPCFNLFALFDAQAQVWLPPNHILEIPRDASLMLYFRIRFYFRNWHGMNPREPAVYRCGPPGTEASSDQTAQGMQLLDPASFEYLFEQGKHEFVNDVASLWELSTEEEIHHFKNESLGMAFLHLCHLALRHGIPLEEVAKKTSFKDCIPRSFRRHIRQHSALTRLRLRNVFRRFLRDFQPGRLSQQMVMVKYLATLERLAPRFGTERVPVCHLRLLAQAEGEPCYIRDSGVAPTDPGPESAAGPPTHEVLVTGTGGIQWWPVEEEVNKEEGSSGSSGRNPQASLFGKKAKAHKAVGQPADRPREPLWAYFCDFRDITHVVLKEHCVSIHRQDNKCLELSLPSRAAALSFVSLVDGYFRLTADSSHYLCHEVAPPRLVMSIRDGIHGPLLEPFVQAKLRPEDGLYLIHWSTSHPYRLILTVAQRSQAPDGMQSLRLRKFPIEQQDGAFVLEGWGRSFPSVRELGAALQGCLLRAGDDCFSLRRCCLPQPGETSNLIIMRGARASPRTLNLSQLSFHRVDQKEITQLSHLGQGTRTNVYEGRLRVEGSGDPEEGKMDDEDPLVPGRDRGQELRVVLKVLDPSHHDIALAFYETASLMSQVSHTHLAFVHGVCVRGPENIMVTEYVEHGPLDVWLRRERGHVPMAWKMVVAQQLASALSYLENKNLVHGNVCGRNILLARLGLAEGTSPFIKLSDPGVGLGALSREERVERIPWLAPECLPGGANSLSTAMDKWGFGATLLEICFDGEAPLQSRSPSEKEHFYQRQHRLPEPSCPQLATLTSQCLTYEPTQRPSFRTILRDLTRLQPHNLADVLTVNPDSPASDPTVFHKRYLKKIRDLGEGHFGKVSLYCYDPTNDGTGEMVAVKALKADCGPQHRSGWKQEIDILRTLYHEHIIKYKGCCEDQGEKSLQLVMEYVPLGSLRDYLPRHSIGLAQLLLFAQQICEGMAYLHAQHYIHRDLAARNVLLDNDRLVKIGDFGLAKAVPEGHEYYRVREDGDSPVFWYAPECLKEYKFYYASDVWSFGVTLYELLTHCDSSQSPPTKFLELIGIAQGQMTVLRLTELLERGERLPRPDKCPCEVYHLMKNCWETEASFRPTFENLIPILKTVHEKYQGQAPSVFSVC
SMILES,IC50 (JAK1) [µM],IC50 (JAK3) [µM],IC50 (JAK2) [µM],IC50 (TYK2) [µM],IC50 [1] [nM]
"CC[C@H](Cn1ccc2cnc(Nc3cnn(CC(=O)Nc4ccncc4)c3)nc21)C(C)C [Example 2, (5)-2-(4-((7-(2-ethyl-3-methylbutyl)-7H-pyrrolo[2,3-d]pyrimidin-2-yl)amino)-1H-pyrazol-1-yl)-N-(pyridin-4-yl) acetamide]",< 0.1,< 0.1,< 0.1,< 0.1,1000 to 10000
"CC[C@H](Cn1ccc2cnc(Nc3cnn(CC(=O)N(C)S(C)(=O)=O)c3)nc21)C(C)C [Example 4, (5)-2-(4-((7-(2-ethyl-3-methylbutyl)-7H-pyrrolo[2,3-d]pyrimidin-2-yl)amino)-1H-pyrazol-1-yl)-N-methyl-N-(methylsulfonyl) acetamide]",< 0.1,< 0.1,< 0.1,< 0.1,100 to 1000
"CCC(CC)Cn1ccc2cnc(Nc3cnn(CC(=O)N(C)C)c3)nc21 [Example 5, 2-(4-((7-(2-ethylbutyl)-7H-pyrrolo[2,3-d]pyrimidin-2-yl)amino)-1H-pyrazol-1-yl)-N, N-dimethylacetamide]",< 0.1,< 0.1,< 0.1,< 0.1,1000 to 10000
"CCC(CC)Cn1ccc2cnc(Nc3cnn(CC(=O)NC)c3)nc21 [Example 6, 2-(4-((7-(2-ethylbutyl)-7H-pyrrolo[2,3-d]pyrimidin-2-yl)amino)-1H-pyrazol-1-yl)-N-methylacetamide]",< 0.1,< 0.1,< 0.1,< 0.1,100 to 1000
